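Exposure lasted 48 hours, with cells grown in 96-well plates and compounds tested at five concentrations. GI50 marks 50% less growth.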 Active and inactive are the calls of the source. Cut-off read from the data, not from the text of the source: active = GI50 up to about 1.1 µM and inactive = higher.
Assays:
Assay in all cases: inhibition of tumour cell growth, NCI panel, 48 h
DMS-114 = system: DMS-114
KM-20L2 = system: KM-20L2
M19-MEL = system: M19-MEL
HOP-18 = system: HOP-18
DLD-1 = system: DLD-1
RXF 631 = system: RXF 631
SNB-78 = system: SNB-78
DMS-273 = system: DMS-273
XF498 = system: XF498

Measured: GI50

COC(=O)C1CC(C(=O)OC)c2nc3cc(C)c(C)cc3nc21 (stereo unspecified)
inactive: DMS-114 > 100 µM | KM-20L2 > 100 µM | M19-MEL > 100 µM | HOP-18 41.7 µM | DLD-1 > 100 µM | RXF 631 > 100 µM | SNB-78 > 100 µM | DMS-273 > 100 µM | XF498 > 100 µM

CCOc1ccccc1/N=N/c1ccc2oc(=O)c(C(C)=O)cc2c1
inactive: DMS-114 > 100 µM | KM-20L2 > 100 µM | M19-MEL > 100 µM | DLD-1 > 100 µM | SNB-78 24.4 µM | DMS-273 > 100 µM | XF498 30.1 µM

O=C1CCC2(c3ccccc3)OCC([C@@H](O)c3ccccc3)N12 (stereo partly specified)
inactive: DMS-114 > 100 µM | KM-20L2 > 100 µM | M19-MEL > 100 µM | HOP-18 > 100 µM | DLD-1 > 100 µM | SNB-78 > 100 µM | DMS-273 > 100 µM | XF498 > 100 µM

C[N+](C)(C)CC1CCCC/C1=N\O (stereo unspecified)
inactive: DMS-114 > 100 µM | KM-20L2 > 100 µM | HOP-18 > 100 µM | DLD-1 > 100 µM | RXF 631 > 100 µM | SNB-78 > 100 µM | DMS-273 > 100 µM

CC(C)C1CNC2N1C(=O)C2(C)OCc1ccccc1 (stereo unspecified)
inactive: DMS-114 > 100 µM | KM-20L2 > 100 µM | M19-MEL > 100 µM | DLD-1 > 100 µM | DMS-273 > 100 µM

CN(C)CCCNc1ccnc2cccc([N+](=O)[O-])c12
inactive: KM-20L2 11.5 µM | SNB-78 12.9 µM

O=C(O)C1OC(Oc2cc(O)c3c(=O)cc(-c4ccc(O)cc4)oc3c2)C(O)C(O)C1O (stereo unspecified)
inactive: DMS-114 > 100 µM | KM-20L2 > 100 µM | M19-MEL > 100 µM | DLD-1 > 100 µM | SNB-78 > 100 µM | DMS-273 > 100 µM | XF498 33.6 µM

O=C(/C=C/c1c(O)ccc2ccccc12)c1cccc(O)c1
inactive: DMS-114 41.3 µM | KM-20L2 > 100 µM | M19-MEL 17.5 µM | HOP-18 23 µM | DLD-1 > 100 µM | SNB-78 > 100 µM | DMS-273 > 63.5 µM | XF498 > 100 µM

COc1cc(NCC(C#N)C#N)ccc1/N=N/c1ccc(Cl)cc1
inactive: DMS-114 18.5 µM | KM-20L2 15.2 µM | M19-MEL 19.3 µM | HOP-18 21 µM | DLD-1 29.4 µM | RXF 631 26.3 µM | SNB-78 36.7 µM | DMS-273 21.5 µM

COC(=O)C1=CCON(c2ccccc2)C1c1ccccc1 (stereo unspecified)
inactive: DMS-114 48.3 µM | KM-20L2 69.8 µM | M19-MEL 62.8 µM | HOP-18 > 100 µM | DLD-1 39.1 µM | DMS-273 56.5 µM | XF498 52 µM

Cc1cc(NCCCCCCCNc2cc(C)nc3cc([N+](=O)[O-])ccc23)c2ccc([N+](=O)[O-])cc2n1
inactive: DMS-114 1.38 µM | KM-20L2 10.8 µM | M19-MEL 12.4 µM | HOP-18 17.3 µM | DLD-1 1.82 µM | RXF 631 7.93 µM | SNB-78 15.9 µM | DMS-273 4.29 µM | XF498 13.7 µM

O=C1C2=C(c3ccccc31)C(c1ccccc1)NC(S)=N2 (stereo unspecified)
inactive: DMS-114 30.7 µM | KM-20L2 42 µM | M19-MEL 67.9 µM | DLD-1 52.6 µM | RXF 631 43.2 µM | DMS-273 26.9 µM | XF498 56 µM

COc1cc(O)c2c(c1O)C(=O)c1cc(C)ncc1C2=O
inactive: DMS-114 18.9 µM | KM-20L2 17.2 µM | M19-MEL 7.91 µM | HOP-18 > 50 µM | DLD-1 16 µM | SNB-78 37.8 µM | XF498 20.6 µM

COc1ccc2nc(-c3cccs3)cc(C(O)CN3CCSCC3)c2c1 (stereo unspecified)
inactive: DMS-114 12.2 µM | KM-20L2 21.6 µM | M19-MEL 22.8 µM | HOP-18 19.8 µM | DLD-1 23.6 µM | DMS-273 19.5 µM | XF498 16.3 µM

Clc1ccc2[nH]c(CCSCCc3nc4ccc(Cl)cc4[nH]3)nc2c1
inactive: M19-MEL 14.4 µM | HOP-18 22.3 µM | DLD-1 15.4 µM | RXF 631 6.89 µM | DMS-273 13.4 µM | XF498 14.2 µM

Cc1cc(Cl)ccc1NC1=NC(=O)C(CC(=O)Nc2ccc(Cl)cc2Cl)S1 (stereo unspecified)
inactive: DMS-114 > 100 µM | KM-20L2 > 100 µM | M19-MEL > 100 µM | DLD-1 > 100 µM | RXF 631 > 100 µM | SNB-78 > 100 µM | DMS-273 > 100 µM | XF498 38.1 µM

C/C=C/C=C/C=C/C=C/C(=O)O
inactive: DMS-114 > 100 µM | KM-20L2 > 100 µM | HOP-18 > 100 µM | DLD-1 > 100 µM | RXF 631 > 100 µM | SNB-78 > 100 µM | DMS-273 > 100 µM

CC1CC(=O)C(CC(=O)O)[C@H]1C(C(=O)C(=O)Nc1cc(Cl)ccc1Cl)[N+](=O)[O-] (stereo partly specified)
inactive: DMS-114 > 100 µM | KM-20L2 > 100 µM | M19-MEL > 100 µM | HOP-18 > 100 µM | DLD-1 > 100 µM | XF498 > 100 µM

Nc1ccc(O)c2c1C(=O)c1c(N)ccc(O)c1C2=O
inactive: DMS-114 > 100 µM | M19-MEL > 100 µM | DLD-1 > 100 µM | SNB-78 > 100 µM | DMS-273 > 100 µM | XF498 > 100 µM
